Results from patent US9328112B2, “Tetracyclic CDK9 kinase inhibitors” (AbbVie Inc., priority 2014, dated 2016).

Key:
H929 cells = assay: Cell viability assay (Cell TiterGlo); format: cell-based; conditions: Homo sapiens, NCI-H929, 24 hours at 37° C., Cell TiterGlo luminescence
Description: The cell viability assay was performed using H929 cells. Cells were seeded in 96-well plates at 10,000 cells/well and, after overnight incubation, treated with compounds in a dose response of 3-fold dilutions from 10 μM to 0.005 μM ([…], 0.1% final DMSO concentration). After 24 hours at 37° C., cell viability was measured using Cell TiterGlo reagent (Promega) with a luminescence reader.

CDK9/Cyclin T1 = CDK9/Cyclin T1 (Homo sapiens (Human), UniProt P50750); assay: CDK9 enzyme assay (LANCE ULight TR-FRET kinase assay); format: biochemical; conditions: 1000 μM ATP, 100 nM ULight MBP, kinase reaction 1 hour
Outline: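 Human CDK9/Cyclin T1 phosphorylating 100 nM ULight-MBP with 1000 μM ATP in HEPES/MgCl2 buffer, 1 h reaction. Stopped with 20 mM EDTA plus 0.5 nM Eu anti-phospho-MBP antibody, incubated 1 h, read by TR-FRET (ex 320 nm, em 615/665 nm).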

CDK9/Cyclin T1, sequence (P50750 whole entry): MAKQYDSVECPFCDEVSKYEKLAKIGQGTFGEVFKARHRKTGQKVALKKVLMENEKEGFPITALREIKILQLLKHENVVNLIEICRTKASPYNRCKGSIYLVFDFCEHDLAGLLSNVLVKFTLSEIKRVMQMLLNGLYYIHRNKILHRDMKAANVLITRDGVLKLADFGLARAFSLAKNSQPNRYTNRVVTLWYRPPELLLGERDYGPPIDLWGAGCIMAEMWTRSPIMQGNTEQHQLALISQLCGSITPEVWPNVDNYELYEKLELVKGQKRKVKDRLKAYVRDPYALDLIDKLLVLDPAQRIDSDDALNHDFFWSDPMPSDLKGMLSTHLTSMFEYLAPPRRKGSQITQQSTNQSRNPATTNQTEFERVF
CDK9/Cyclin T1, sequence (O60563 whole entry partner): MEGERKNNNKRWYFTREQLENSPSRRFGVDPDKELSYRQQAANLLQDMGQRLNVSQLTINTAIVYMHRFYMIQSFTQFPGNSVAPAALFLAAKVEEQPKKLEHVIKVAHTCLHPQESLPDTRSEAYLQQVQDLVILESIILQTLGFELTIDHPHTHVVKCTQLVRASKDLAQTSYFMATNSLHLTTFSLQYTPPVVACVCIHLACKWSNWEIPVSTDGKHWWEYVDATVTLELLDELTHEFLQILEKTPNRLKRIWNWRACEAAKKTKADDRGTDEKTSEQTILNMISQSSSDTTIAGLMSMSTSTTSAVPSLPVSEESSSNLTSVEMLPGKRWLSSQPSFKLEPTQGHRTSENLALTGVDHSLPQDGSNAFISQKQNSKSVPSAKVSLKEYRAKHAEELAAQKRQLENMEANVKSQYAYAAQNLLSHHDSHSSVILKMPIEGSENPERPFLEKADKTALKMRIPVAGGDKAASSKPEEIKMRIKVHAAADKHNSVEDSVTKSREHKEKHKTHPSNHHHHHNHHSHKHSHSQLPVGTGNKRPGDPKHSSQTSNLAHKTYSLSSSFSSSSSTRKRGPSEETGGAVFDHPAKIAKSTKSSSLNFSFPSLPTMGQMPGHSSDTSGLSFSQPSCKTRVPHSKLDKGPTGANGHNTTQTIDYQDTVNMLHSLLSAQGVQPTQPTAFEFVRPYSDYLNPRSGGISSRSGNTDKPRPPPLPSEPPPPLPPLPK

Compound	IC50 (H929 cells) [µM]	IC50 (CDK9/Cyclin T1) [µM]
CN1Cc2c(C3=C[C@H]4CC[C@@H](C3)N4)[nH]c3nccc(c23)-c2cc(F)ccc21 [Example 62, 5-[(1R,5S)-8-azabicyclo[3.2.1]oct-2-en-3-yl]-10-fluoro-7-methyl-6,7-dihydro-4H-3,4,7-triazadibenzo[cd,f]azulene]	0.15	0.046
CN1Cc2c(C3=CCN(CC(=O)N4CC(O)C4)CC3(C)C)[nH]c3nccc(c23)-c2cc(F)ccc21 [Example 117, 2-[4-(10-fluoro-7-methyl-6,7-dihydro-4H-3,4,7-triazadibenzo[cd,f]azulen-5-yl)-3,3-dimethyl-3,6-dihydropyridin-1(2H)-yl]-1-(3-hydroxyazetidin-1-yl)ethanone]	2.4	0.96
CN1Cc2c(C3=CCN(CC(=O)N(CCO)CCO)CC3)[nH]c3nccc(c23)-c2cc(F)ccc21 [Example 53, 2-[4-(10-fluoro-7-methyl-6,7-dihydro-4H-3,4,7-triazadibenzo[cd,f]azulen-5-yl)-3,6-dihydropyridin-1(2H)-yl]-N,N-bis(2-hydroxyethyl)acetamide]	0.047	0.057
CN1c2ccc(F)cc2-c2ccnc3[nH]c(C4=CCNCC4)c(c23)C1c1cnn(C)c1 (stereo not shown) [Example 10, 10-fluoro-7-methyl-6-(1-methyl-1H-pyrazol-4-yl)-5-(1,2,3,6-tetrahydropyridin-4-yl)-6,7-dihydro-4H-3,4,7-triazadibenzo[cd,f]azulene]	0.36	0.23
CN1Cc2c(C3=CCN(CC(=O)N4CC(O)C4)CC3)[nH]c3ncc(F)c(c23)-c2cc(F)ccc21 [Example 72, 2-[4-(1,10-difluoro-7-methyl-6,7-dihydro-4H-3,4,7-triazadibenzo[cd,f]azulen-5-yl)-3,6-dihydropyridin-1(2H)-yl]-1-(3-hydroxyazetidin-1-yl)ethanone]	0.021	0.079
CN1Cc2c(C3CCNCC3)[nH]c3nccc(c23)-c2cc(F)ccc21 [Example 21, 10-fluoro-7-methyl-5-(piperidin-4-yl)-6,7-dihydro-4H-3,4,7-triazadibenzo[cd,f]azulene]	0.46	0.4
CN(C)C(=O)CN1CC=C(c2[nH]c3nccc4c3c2CN(C)c2ncccc2-4)CC1 [Example 149, N,N-dimethyl-2-[4-(7-methyl-6,7-dihydro-4H-3,4,7,8-tetraazadibenzo[cd,f]azulen-5-yl)-3,6-dihydropyridin-1(2H)-yl]acetamide]	0.16	0.11
CN1Cc2c(C3=CCN(CCS(=O)(=O)N(C)C)CC3)[nH]c3nccc(c23)-c2cc(F)ccc21 [Example 178, 2-[4-(10-fluoro-7-methyl-6,7-dihydro-4H-3,4,7-triazadibenzo[cd,f]azulen-5-yl)-3,6-dihydropyridin-1(2H)-yl]-N,N-dimethylethanesulfonamide]	0.04	0.025
CN(C)C(=O)CN1CC=C(c2[nH]c3nccc4c3c2CN(C)c2ccc(F)cc2-4)CC1 [Example 12, 2-[4-(10-fluoro-7-methyl-6,7-dihydro-4H-3,4,7-triazadibenzo[cd,f]azulen-5-yl)-3,6-dihydropyridin-1(2H)-yl]-N,N-dimethylacetamide]	0.042	0.051
CN1Cc2c(C3=CCN([C@H]4CC[C@@H](CC(=O)O)CC4)CC3)[nH]c3nccc(c23)-c2cc(F)c(F)cc21 [Example 136, {cis-4-[4-(9,10-difluoro-7-methyl-6,7-dihydro-4H-3,4,7-triazadibenzo[cd,f]azulen-5-yl)-3,6-dihydropyridin-1(2H)-yl]cyclohexyl}acetic acid]	0.021	0.058
CN1Cc2c(C3=CCN(CC(=O)N(C)C4CC(O)C4)CC3)[nH]c3nccc(c23)-c2cc(F)ccc21 (stereo not shown) [Example 24, 2-[4-(10-fluoro-7-methyl-6,7-dihydro-4H-3,4,7-triazadibenzo[cd,f]azulen-5-yl)-3,6-dihydropyridin-1(2H)-yl]-N-(3-hydroxycyclobutyl)-N-methylacetamide]	0.027	0.04
